This note sets out measurements from patent US20230135152A1 (ACURASTEM INCORPORATED, priority 2020, published 2023).

For orientation: IC50 means the point on the concentration scale where inhibition reaches its midpoint. A higher IC50 goes with weaker potency in that assay. In general, EC50 refers to the concentration needed to bring the measured effect to its halfway point. High values mean lower potency in that assay, low ones higher potency in that assay.

In test [1] the target is T1, PIKFYVE (Homo sapiens, UniProt Q9Y2I7). Briefly: PIKFYVE assay (luciferase ADP-Glo kinase assay, Promega). It counts as biochemical. The note with it: Table 3. In outline:
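ADP generated in the kinase reaction was detected by ADP-Glo luminescence (luciferase).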
In general terms: In ADP-Glo the light output rises with the ADP produced.

Test [2] deals with T1, PIKFYVE. Briefly: Cell-based Pikfyve inhibition activity assay (EEA1 staining, mean vesicle size in BJ fibroblast cells). The note with it: Table 4, 4 hours treatment, 3 μM Apilimod = 100% inhibition. In outline: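 BJ fibroblasts treated 4 h at 37° C with eleven 3-fold doses (0.03-3000 nM), then fixed and stained for EEA1. Confocal images (20×, 16 tiles/well) analysed for mean vesicle size. Normalised to 0.5% DMSO (0%) and 3 μM apilimod (100%); dose-response fitted with variable slope.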

A value given as a limit tells only on which side of the number the result lay.

T1 sequence (Q9Y2I7 whole entry): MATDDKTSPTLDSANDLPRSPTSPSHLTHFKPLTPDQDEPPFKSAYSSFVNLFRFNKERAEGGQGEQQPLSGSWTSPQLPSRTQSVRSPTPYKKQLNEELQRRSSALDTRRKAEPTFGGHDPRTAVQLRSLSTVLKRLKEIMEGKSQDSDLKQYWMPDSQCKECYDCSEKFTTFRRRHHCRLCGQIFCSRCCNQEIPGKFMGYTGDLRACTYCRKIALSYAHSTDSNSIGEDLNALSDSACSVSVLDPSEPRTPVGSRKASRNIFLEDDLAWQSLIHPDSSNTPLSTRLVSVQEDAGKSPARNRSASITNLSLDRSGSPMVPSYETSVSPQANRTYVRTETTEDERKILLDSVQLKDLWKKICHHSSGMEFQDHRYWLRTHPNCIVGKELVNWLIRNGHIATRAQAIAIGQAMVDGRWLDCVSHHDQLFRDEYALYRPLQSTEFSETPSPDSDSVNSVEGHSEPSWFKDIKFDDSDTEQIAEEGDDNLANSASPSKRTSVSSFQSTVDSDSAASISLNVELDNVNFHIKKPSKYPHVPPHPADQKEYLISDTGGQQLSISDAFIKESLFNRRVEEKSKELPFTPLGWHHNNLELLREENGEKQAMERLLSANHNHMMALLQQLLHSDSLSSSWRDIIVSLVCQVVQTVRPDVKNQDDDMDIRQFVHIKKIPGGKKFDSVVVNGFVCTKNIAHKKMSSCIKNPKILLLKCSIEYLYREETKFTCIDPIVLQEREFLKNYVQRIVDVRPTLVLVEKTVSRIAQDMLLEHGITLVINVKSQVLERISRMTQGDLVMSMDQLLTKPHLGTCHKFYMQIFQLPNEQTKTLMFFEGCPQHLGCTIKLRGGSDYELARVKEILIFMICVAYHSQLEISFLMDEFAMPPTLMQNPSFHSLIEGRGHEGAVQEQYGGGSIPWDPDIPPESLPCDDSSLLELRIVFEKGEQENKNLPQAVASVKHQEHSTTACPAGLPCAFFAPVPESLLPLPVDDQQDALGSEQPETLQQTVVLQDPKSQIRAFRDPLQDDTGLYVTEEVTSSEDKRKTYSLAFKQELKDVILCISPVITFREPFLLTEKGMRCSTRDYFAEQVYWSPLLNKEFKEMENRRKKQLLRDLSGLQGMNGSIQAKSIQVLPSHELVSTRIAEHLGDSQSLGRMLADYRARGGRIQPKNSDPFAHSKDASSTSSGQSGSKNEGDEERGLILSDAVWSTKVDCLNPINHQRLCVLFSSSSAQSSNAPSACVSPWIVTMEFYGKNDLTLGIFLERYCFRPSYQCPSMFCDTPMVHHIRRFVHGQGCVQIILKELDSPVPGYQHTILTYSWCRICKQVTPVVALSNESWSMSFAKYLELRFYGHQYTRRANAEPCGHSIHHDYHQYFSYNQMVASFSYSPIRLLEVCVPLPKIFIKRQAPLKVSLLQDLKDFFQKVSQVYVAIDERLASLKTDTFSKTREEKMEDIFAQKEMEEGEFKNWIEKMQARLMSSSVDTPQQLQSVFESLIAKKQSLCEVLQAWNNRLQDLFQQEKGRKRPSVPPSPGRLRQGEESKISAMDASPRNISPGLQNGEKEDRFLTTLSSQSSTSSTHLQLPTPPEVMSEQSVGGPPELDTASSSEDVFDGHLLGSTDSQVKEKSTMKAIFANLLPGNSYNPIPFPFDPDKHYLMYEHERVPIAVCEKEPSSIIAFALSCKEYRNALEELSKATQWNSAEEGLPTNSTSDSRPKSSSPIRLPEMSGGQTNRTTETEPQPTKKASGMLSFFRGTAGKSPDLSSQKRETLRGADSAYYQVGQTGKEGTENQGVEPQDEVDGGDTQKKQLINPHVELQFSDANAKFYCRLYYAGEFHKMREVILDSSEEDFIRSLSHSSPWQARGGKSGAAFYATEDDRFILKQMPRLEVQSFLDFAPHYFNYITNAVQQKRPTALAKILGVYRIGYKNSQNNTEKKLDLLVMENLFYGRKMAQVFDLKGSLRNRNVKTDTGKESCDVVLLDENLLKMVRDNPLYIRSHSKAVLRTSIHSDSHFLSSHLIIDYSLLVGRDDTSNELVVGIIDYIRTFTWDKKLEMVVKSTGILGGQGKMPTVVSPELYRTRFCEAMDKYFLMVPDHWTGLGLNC

On PIKFYVE [1], `Cc1cccc(-c2ccn(-c3cc(N4CCOCC4)nc(C#CC(O)c4cnn(C)c4)n3)n2)c1` (stereo not shown) [Compound 230, 1-(1-methyl-1H-pyrazol-4-yl)-3-(4-morpholino-6-(3-(m-tolyl)-1H-pyrazol-1-yl)pyrimidin-2-yl)prop-2-yn-1-ol] had an IC50 of less than 3 nM. Also, the EC50 on PIKFYVE [2] lay in the range of 20 to 100 nM.

For the molecule `Cc1cccc(-c2ccn(-c3cc(N4CCOCC4)nc(CCC(O)c4cnn(C)c4)n3)n2)c1` (stereo not shown) [Compound 231, 1-(1-methyl-1H-pyrazol-4-yl)-3-(4-morpholino-6-(3-(m-tolyl)-1H-pyrazol-1-yl)pyrimidin-2-yl)propan-1-ol], the IC50 at PIKFYVE [1] was less than 3 nM. Moreover, on PIKFYVE [2], the EC50 was 20 to 100 nM.

On to `Cn1cc(CCOc2nc(N3CCOCC3)cc(-n3ccc(-c4cn(C)c5ccccc45)n3)n2)cn1` [Compound 232, 4-(6-(3-(1-methyl-1H-indol-3-yl)-1H-pyrazol-1-yl)-2-(2-(1-methyl-1H-pyrazol-4-yl)ethoxy)pyrimidin-4-yl)morpholine], for which the IC50 on PIKFYVE [1] fell in the range of 100 to 5000 nM. Besides, the EC50 on PIKFYVE [2] is more than 5000 nM.

In the case of `Cn1cc(CCOc2nc(N3CCOCC3)cc(-n3nc(-c4ccccc4)cc3CO)n2)cn1` [Compound 233, (1-(2-(2-(1-methyl-1H-pyrazol-4-yl)ethoxy)-6-morpholinopyrimidin-4-yl)-3-phenyl-1H-pyrazol-5-yl)methanol], the IC50 on PIKFYVE [1] was less than 3 nM. On PIKFYVE [2], the EC50 lay in the range of 20 to 100 nM.

`Cc1cccc(-c2cc(CO)n(-c3cc(N4CCOCC4)nc(OCCc4cnn(C)c4)n3)n2)c1` [Compound 234, (1-(2-(2-(1-methyl-1H-pyrazol-4-yl)ethoxy)-6-morpholinopyrimidin-4-yl)-3-(m-tolyl)-1H-pyrazol-5-yl)methanol] gave an IC50 against PIKFYVE [1] of less than 3 nM. The EC50 at PIKFYVE [2] was less than 20 nM.

At PIKFYVE [1], `Cc1cccc(-c2cc(CN3CCOCC3)n(-c3cc(N4CCOCC4)nc(OCCc4cnn(C)c4)n3)n2)c1` [Compound 235, 4-(2-(2-(1-methyl-1H-pyrazol-4-yl)ethoxy)-6-(5-(morpholinomethyl)-3-(m-tolyl)-1H-pyrazol-1-yl)pyrimidin-4-yl)morpholine] came in with an IC50 of less than 3 nM. Moreover, at PIKFYVE [2], the EC50 was in the range of 20 to 100 nM.

In the case of `COc1nc(N2CCOCC2)cc(-n2nc(-c3cccc(C)c3)cc2CN2CCOCC2)n1` [Compound 236, 4-(2-methoxy-6-(5-(morpholinomethyl)-3-(m-tolyl)-1H-pyrazol-1-yl)pyrimidin-4-yl)morpholine], at PIKFYVE [1], the IC50 was less than 3 nM. Further, at PIKFYVE [2], the EC50 was more than 5000 nM.

As to `Cc1cccc(-c2cc(N3CCOCC3)n(-c3cc(N4CCOCC4)nc(OCCc4cnn(C)c4)n3)n2)c1` [Compound 237, 4-(2-(2-(1-methyl-1H-pyrazol-4-yl)ethoxy)-6-(5-morpholino-3-(m-tolyl)-1H-pyrazol-1-yl)pyrimidin-4-yl)morpholine], the IC50 on PIKFYVE [1] is less than 3 nM. The molecule also displayed an EC50 at PIKFYVE [2] of less than 20 nM.

In turn, `Cc1cccc(-c2ccn(-c3cc(N4CCOCC4)nc(OCc4ccn(CCN(C)C)n4)n3)n2)c1` [Compound 238, N,N-dimethyl-2-(3-(((4-morpholino-6-(3-(m-tolyl)-1H-pyrazol-1-yl)pyrimidin-2-yl)oxy)methyl)-1H-pyrazol-1-yl)ethan-1-amine] registered an IC50 at PIKFYVE [1] of less than 3 nM. On PIKFYVE [2], this molecule came in with an EC50 of 100 to 500 nM.

Turning to `Cc1cccc(-c2ccn(-c3cc(N4CCOCC4)c4[nH]ccc4n3)n2)c1` [Compound 241, 4-(5-(3-(m-tolyl)-1H-pyrazol-1-yl)-1H-pyrrolo[3,2-b]pyridin-7-yl)morpholine], the IC50 against PIKFYVE [1] lay in the range of 3 to 10 nM. The EC50 on PIKFYVE [2] lay in the range of 500 to 5000 nM.

At PIKFYVE [1], `Cc1cccc(-c2cc(CN(C)C)n(-c3cc(N4CCOCC4)c4[nH]ccc4n3)n2)c1` [Compound 242, N,N-dimethyl-1-(1-(7-morpholino-1H-pyrrolo[3,2-b]pyridin-5-yl)-3-(m-tolyl)-1H-pyrazol-5-yl)] had an IC50 of 3 to 10 nM. Moreover, the EC50 on PIKFYVE [2] is 500 to 5000 nM.

With `Cc1cc(-c2cccc3c2OCCN3)nn1-c1cc(N2CCOCC2)nc(OCCc2cnn(C)c2)n1` [Compound 245, 8-(5-methyl-1-(2-(2-(1-methyl-1H-pyrazol-4-yl)ethoxy)-6-morpholinopyrimidin-4-yl)-1H-pyrazol-3-yl)-3,4-dihydro-2H-benzo[b][1,4]oxazine], the IC50 against PIKFYVE [1] lay in the range of 10 to 100 nM. This molecule registered an EC50 at PIKFYVE [2] of more than 5000 nM.

Consider `COc1cccc(-c2ccn(-c3cc(N4CCOCC4)nc([C@@H](CO)OC)n3)n2)c1` [Compound 262, (S)-2-methoxy-2-(4-(3-(3-methoxyphenyl)-1H-pyrazol-1-yl)-6-morpholinopyrimidin-2-yl)ethan-1-ol], for which, at PIKFYVE [1], the IC50 lay in the range of 10 to 100 nM. Also, the EC50 on PIKFYVE [2] fell in the range of 100 to 500 nM.

For the molecule `COc1cccc(-c2ccn(-c3cc(N4CCOCC4)nc([C@H](CO)OC)n3)n2)c1` [Compound 263, (R)-2-methoxy-2-(4-(3-(3-methoxyphenyl)-1H-pyrazol-1-yl)-6-morpholinopyrimidin-2-yl)ethan-1-ol], at PIKFYVE [1], the half-maximal inhibitory concentration (IC50) was in the range of 10 to 100 nM. For the same molecule, the EC50 at PIKFYVE [2] is 100 to 500 nM.

As for `CO[C@H](CO)c1nc(N2CCOCC2)cc(-n2ccc(-c3cccc4[nH]ccc34)n2)n1` [Compound 268, (S)-2-(4-(3-(1H-indol-4-yl)-1H-pyrazol-1-yl)-6-morpholinopyrimidin-2-yl)-2-methoxyethan-1-ol], the IC50 against PIKFYVE [1] fell in the range of 10 to 100 nM. Besides, the EC50 at PIKFYVE [2] was 500 to 5000 nM.

Molecule `CO[C@@H](CO)c1nc(N2CCOCC2)cc(-n2ccc(-c3cccc4[nH]ccc34)n2)n1` [Compound 269, (R)-2-(4-(3-(1H-indol-4-yl)-1H-pyrazol-1-yl)-6-morpholinopyrimidin-2-yl)-2-methoxyethan-1-ol] showed an IC50 at PIKFYVE [1] of 10 to 100 nM. The molecule further displayed an EC50 on PIKFYVE [2] of 500 to 5000 nM.

As for `CCc1cccc(-c2ccn(-c3cc(N4CCOCC4)nc([C@@H](CO)OC)n3)n2)c1` [Compound 272, (S)-2-(4-(3-(3-ethylphenyl)-1H-pyrazol-1-yl)-6-morpholinopyrimidin-2-yl)-2-methoxyethan-1-ol], the IC50 at PIKFYVE [1] fell in the range of 3 to 10 nM. At PIKFYVE [2], this molecule registered an EC50 of 100 to 500 nM.

Take `CCc1cccc(-c2ccn(-c3cc(N4CCOCC4)nc([C@H](CO)OC)n3)n2)c1` [Compound 273, (R)-2-(4-(3-(3-ethylphenyl)-1H-pyrazol-1-yl)-6-morpholinopyrimidin-2-yl)-2-methoxyethan-1-ol]: the IC50 on PIKFYVE [1] fell in the range of 3 to 10 nM. On PIKFYVE [2], the EC50 was in the range of 100 to 500 nM.

In the case of `CO[C@H](CO)c1nc(N2CCOCC2)cc(-n2ccc(-c3cccc4ncsc34)n2)n1` [Compound 274, (S)-2-(4-(3-(benzo[d]thiazol-7-yl)-1H-pyrazol-1-yl)-6-morpholinopyrimidin-2-yl)-2-methoxyethan-1-ol], the IC50 against PIKFYVE [1] was 100 to 5000 nM. On PIKFYVE [2], this molecule showed an EC50 of more than 5000 nM.

In turn, `CO[C@@H](CO)c1nc(N2CCOCC2)cc(-n2ccc(-c3cccc4ncsc34)n2)n1` [Compound 275, (R)-2-(4-(3-(benzo[d]thiazol-7-yl)-1H-pyrazol-1-yl)-6-morpholinopyrimidin-2-yl)-2-methoxyethan-1-ol] had an IC50 at PIKFYVE [1] of 100 to 5000 nM. Further, the EC50 at PIKFYVE [2] was more than 5000 nM.

On PIKFYVE [1], `COCc1cccc(-c2ccn(-c3cc(N4CCOCC4)nc([C@@H](CO)OC)n3)n2)c1` [Compound 276, (S)-2-methoxy-2-(4-(3-(3-(methoxymethyl)phenyl)-1H-pyrazol-1-yl)-6-morpholinopyrimidin-2-yl)ethan-1-ol] returned an IC50 of 3 to 10 nM. For the same molecule, the EC50 at PIKFYVE [2] lay within 100 to 500 nM.

`COCc1cccc(-c2ccn(-c3cc(N4CCOCC4)nc([C@H](CO)OC)n3)n2)c1` [Compound 277, (R)-2-methoxy-2-(4-(3-(3-(methoxymethyl)phenyl)-1H-pyrazol-1-yl)-6-morpholinopyrimidin-2-yl)ethan-1-ol] displayed an IC50 against PIKFYVE [1] of 3 to 10 nM. Moreover, at PIKFYVE [2], the EC50 is 100 to 500 nM.

For the molecule `CO[C@H](CO)c1nc(N2CCOCC2)cc(-n2nc(-c3csc4ccccc34)cc2C)n1` [Compound 278, (S)-2-(4-(3-(benzo[b]thiophen-3-yl)-5-methyl-1H-pyrazol-1-yl)-6-morpholinopyrimidin-2-yl)-2-methoxyethan-1-ol], on PIKFYVE [1], the IC50 is less than 3 nM. This molecule also gave an EC50 on PIKFYVE [2] of 500 to 5000 nM.

For `CO[C@@H](CO)c1nc(N2CCOCC2)cc(-n2nc(-c3csc4ccccc34)cc2C)n1` [Compound 279, (R)-2-(4-(3-(benzo[b]thiophen-3-yl)-5-methyl-1H-pyrazol-1-yl)-6-morpholinopyrimidin-2-yl)-2-methoxyethan-1-ol], the IC50 against PIKFYVE [1] lay within 3 to 10 nM. On PIKFYVE [2], this molecule displayed an EC50 of 500 to 5000 nM.

`CO[C@H](CO)c1nc(N2CCOCC2)cc(-n2ccc(-c3c[nH]c4ncccc34)n2)n1` [Compound 292, (S)-2-(4-(3-(1H-pyrrolo[2,3-b]pyridin-3-yl)-1H-pyrazol-1-yl)-6-morpholinopyrimidin-2-yl)-2-methoxyethan-1-ol] displayed a concentration for half-maximal inhibition (IC50) at PIKFYVE [1] of 10 to 100 nM. The same molecule came in with an EC50 at PIKFYVE [2] of 20 to 100 nM.

As for `CO[C@@H](CO)c1nc(N2CCOCC2)cc(-n2ccc(-c3c[nH]c4ncccc34)n2)n1` [Compound 293, (R)-2-(4-(3-(1H-pyrrolo[2,3-b]pyridin-3-yl)-1H-pyrazol-1-yl)-6-morpholinopyrimidin-2-yl)-2-methoxyethan-1-ol], the IC50 at PIKFYVE [1] lay within 10 to 100 nM. The molecule further showed an EC50 on PIKFYVE [2] of 100 to 500 nM.

For the molecule `Cc1cccc(-c2ccn(-c3cc(N4CCOCC4)nc(COCc4cn(C)cn4)n3)n2)c1` [Compound 297, 4-(2-(((1-methyl-1H-imidazol-4-yl)methoxy)methyl)-6-(3-(m-tolyl)-1H-pyrazol-1-yl)pyrimidin-4-yl)morpholine], on PIKFYVE [1], the IC50 lay within 3 to 10 nM. The EC50 at PIKFYVE [2] was in the range of 100 to 500 nM.

`Cn1cc(COCc2nc(N3CCOCC3)cc(-n3ccc(-c4ccccc4)n3)n2)cn1` [Compound 298, 4-(2-(((1-methyl-1H-pyrazol-4-yl)methoxy)methyl)-6-(3-phenyl-1H-pyrazol-1-yl)pyrimidin-4-yl)morpholine] came in with a 50% inhibitory concentration (IC50) against PIKFYVE [1] of 3 to 10 nM. At PIKFYVE [2], this molecule showed an EC50 of 500 to 5000 nM.

`Cc1cccc(-c2ccn(-c3cc(N4CCOCC4)nc(COCc4cnn(C)c4)n3)n2)c1` [Compound 299, 4-(2-(((1-methyl-1H-pyrazol-4-yl)methoxy)methyl)-6-(3-(m-tolyl)-1H-pyrazol-1-yl)pyrimidin-4-yl)morpholine] gave an IC50 at PIKFYVE [1] of less than 3 nM. The EC50 at PIKFYVE [2] was 20 to 100 nM.
